The text below walks through data of US4228292A, “N-Substituted benzothiazolines and benzoxazolines and their use as herbicides and plant growth regulants” (Monsanto Company, priority 1978, dated 1980).

Holding throughout (assay): post-emergent herbicidal test
Assay type in all cases: in vivo

In one experiment the test system is Crabgrass. As to conditions: T. How it is done:
(§1) The post-emergent tests were conducted as follows:
(§2) The herbicidal active ingredients are applied in spray form to two or three-week old specimens of various plant species. The spray, a solution or wettable powder suspension containing the appropriate rate of herbicidal active ingredient to give the desired test rate and a surfactant, is applied to the plants. The treated plants are placed in a greenhouse and approximately two or four weeks later the effects are observed and recorded. The results are shown in Tables IX and X in which the post-emergent herbicidal rating code is as follows: […]

Another experiment has as its system Hemp Sesbania. As to conditions: R. How it is done:
as §1, §2

The test system of another experiment is Panicum Spp. Conditions: S. How it is done:
as §1, §2

Another experiment concerns Rice. Conditions: O. How it is done: as §1, §2
The subject of the next experiment is Sorghum. As to conditions: P. How it is done:
as §1, §2

For another experiment, the system named is Soybean. As to conditions: L. How it is done: as §1, §2
The subject of a further experiment is Sugar Beet. Conditions: M. How it is done: as §1, §2
For another experiment, the system named is Wheat. Conditions: N. How it is done:
as §1, §2

Another experiment relates to Wild Buckwheat. Conditions: Q. How it is done: as §1, §2

SMILES strings stand for the structures.
Further: ranges in brackets are in %.

With `COC(=N)Cn1c(=O)sc2ccccc21` [Compound 37], the post-emergent herbicidal rating in the experiment with Crabgrass (1.12 kg/h, 4 WAT) is recorded as 0 (0-24); with Crabgrass (5.6 kg/h, 4 WAT) it was 1 (25-49); in the experiment on Hemp Sesbania (1.12 kg/h, 4 WAT), 2 (50-74); with Hemp Sesbania (5.6 kg/h, 4 WAT), 3 (75-99); with Panicum Spp (1.12 kg/h, 4 WAT), 0 (0-24); in the experiment on Panicum Spp (5.6 kg/h, 4 WAT), 0 (0-24). Besides, the post-emergent herbicidal rating in the experiment with Rice (1.12 kg/h, 4 WAT) is on record as 0 (0-24); with Rice (5.6 kg/h, 4 WAT), 0 (0-24); in the experiment with Sorghum (1.12 kg/h, 4 WAT), 0 (0-24); in the experiment with Sorghum (5.6 kg/h, 4 WAT), 0 (0-24); in the experiment on Soybean (1.12 kg/h, 4 WAT) it was 1 (25-49); in the experiment with Soybean (5.6 kg/h, 4 WAT), 2 (50-74). In addition, the post-emergent herbicidal rating in the experiment with Sugar Beet (1.12 kg/h, 4 WAT) was 2 (50-74); in the experiment with Sugar Beet (5.6 kg/h, 4 WAT), 2 (50-74); with Wheat (1.12 kg/h, 4 WAT) it was 0 (0-24); in the experiment on Wheat (5.6 kg/h, 4 WAT), 0 (0-24); in the experiment on Wild Buckwheat (1.12 kg/h, 4 WAT), 2 (50-74); with Wild Buckwheat (5.6 kg/h, 4 WAT), 4 (100).
Regarding `COC(=N)Cn1c(=O)sc2ccccc21` [Compound 38], the post-emergent herbicidal rating is 0 (0-24) with Crabgrass (0.28 kg/h, 2 WAT); 0 (0-24) in the experiment on Crabgrass (1.12 kg/h, 4 WAT); 0 (0-24) in the experiment with Hemp Sesbania (0.28 kg/h, 2 WAT); 1 (25-49) in the experiment with Hemp Sesbania (1.12 kg/h, 4 WAT); 0 (0-24) in the experiment on Panicum Spp (0.28 kg/h, 2 WAT); 0 (0-24) with Panicum Spp (1.12 kg/h, 4 WAT). In addition, the post-emergent herbicidal rating in the experiment on Rice (0.28 kg/h, 2 WAT) was 0 (0-24); in the experiment with Rice (1.12 kg/h, 4 WAT), 1 (25-49); in the experiment with Sorghum (0.28 kg/h, 2 WAT), 0 (0-24); in the experiment with Sorghum (1.12 kg/h, 4 WAT), 0 (0-24); in the experiment on Soybean (0.28 kg/h, 2 WAT) it was 1 (25-49); in the experiment on Soybean (1.12 kg/h, 4 WAT), 1 (25-49). For the same molecule, the post-emergent herbicidal rating in the experiment with Sugar Beet (0.28 kg/h, 2 WAT) is reported as 1 (25-49); in the experiment on Sugar Beet (1.12 kg/h, 4 WAT), 2 (50-74); in the experiment with Wheat (0.28 kg/h, 2 WAT) it was 0 (0-24); with Wheat (1.12 kg/h, 4 WAT), 0 (0-24); in the experiment with Wild Buckwheat (0.28 kg/h, 2 WAT), 0 (0-24); with Wild Buckwheat (1.12 kg/h, 4 WAT) it was 2 (50-74).
